Reference: ChEMBL document CHEMBL3045037, “Insecticidal and Neuroblocking Activities of Acetamiprid and Related Compounds” (J Pestic Sci, 2003)

Columns and labels:
[1] = Lipophilicity, log P of the compound by HPLC based shake flask method; assay type: physicochemical
[2] = test system: Abdominal central nerve cord; assay: Neuroblocking activity in adult male Periplaneta americana (American cockroach) abdominal central nerve cords assessed as neuroblocking concentration measured at 22 to 25 degC; assay type: functional
Periplaneta americana [3] = assay: Insecticidal activity against adult male Periplaneta americana (American cockroach) dosed through injection into abdomen assessed as mortality measured 24 hr post dose in presence of 50 ug metabolic inhibitor PB and 50 ug NIA; assay type: functional
Periplaneta americana [4] = assay: Insecticidal activity against adult male Periplaneta americana (American cockroach) dosed through injection into abdomen assessed as mortality measured 24 hr post dose in presence of 50 ug metabolic inhibitor PB; assay type: functional
Periplaneta americana [5] = assay: Insecticidal activity against adult male Periplaneta americana (American cockroach) dosed through injection into abdomen assessed as mortality measured 24 hr post dose; assay type: functional

| SMILES | logP [1] | log(1/BC) [2] | log(1/MLD) (Periplaneta americana [3]) | log(1/MLD) (Periplaneta americana [4]) | log(1/MLD) (Periplaneta americana [5]) |
| --- | --- | --- | --- | --- | --- |
| C/C(=N\C#N)NCc1ccc(Cl)nc1 | 1.07 | 3.7 | 7.5 | 6.7 | 6.4 |
| CCN(Cc1ccc(Cl)nc1)/C(C)=N/C#N | 1.19 | 5.87 | 9.24 | 7.63 | 7.14 |
| CCCN(Cc1ccc(Cl)nc1)/C(C)=N/C#N | 1.62 | 5.14 | 8.34 | 7.44 | 7.04 |
| C/C(=N\C#N)N(Cc1ccc(Cl)nc1)C(C)C | 1.46 | 4.47 | 7.67 | – | 6.78 |
| C=CCN(Cc1ccc(Cl)nc1)/C(C)=N/C#N | 1.56 | 5.46 | 8.07 | – | 7.07 |
| CCCCN(Cc1ccc(Cl)nc1)/C(C)=N/C#N | 2.13 | 4.48 | 7.71 | – | <7.01 |
| CCCCCN(Cc1ccc(Cl)nc1)/C(C)=N/C#N | 2.37 | 5.01 | 7.8 | – | <6.9 |
| C/C(=N\C#N)N(Cc1ccccc1)Cc1ccc(Cl)nc1 | 2.11 | 4.46 | 7.6 | – | 6.7 |
| CC/C(=N\C#N)N(C)Cc1ccc(Cl)nc1 | 1.12 | 5.23 | 8.54 | 7.64 | 7.24 |
| CCC/C(=N\C#N)N(C)Cc1ccc(Cl)nc1 | 1.55 | 3.78 | 7.77 | 6.68 | <6.58 |
| CC(C)/C(=N\C#N)N(C)Cc1ccc(Cl)nc1 | 1.39 | 3.44 | 7.44 | 6.74 | 6.44 |
| CCCC/C(=N\C#N)N(C)Cc1ccc(Cl)nc1 | 1.87 | <3.37 | 6.77 | <6.37 | <6.37 |
| CC(C)C/C(=N\C#N)N(C)Cc1ccc(Cl)nc1 | 1.75 | <3.3 | 6.9 | <6.3 | <6.3 |
| CCCCC/C(=N\C#N)N(C)Cc1ccc(Cl)nc1 | 2.3 | <3.2 | 6.8 | 6.2 | <6.2 |
| CN(Cc1ccc(Cl)nc1)/C(=N/C#N)c1ccccc1 | 1.86 | <3.39 | 6.99 | 6.48 | <6.39 |
| CN(Cc1ccc(Cl)nc1)/C(Cc1ccccc1)=N/C#N | 2.13 | <3.58 | 6.78 | <6.58 | <6.58 |
| C/C(=N\C#N)N(C)Cc1ccc(Cl)nc1 [ACETAMIPRID] | 0.83 | 6.19 | 9.68 | 8.58 | 8.28 |
| O=[N+]([O-])/N=C1\NCCN1Cc1ccc(Cl)nc1 [IMIDACLOPRID] | 0.6 | 5.64 | 10.15 | 9.26 | 8.96 |
